Article PMC10269165 (Antimicrobial Agents and Chemotherapy, 2023)

Legend:
[1] = test system: MDR isolate of H. contortus, exsheathed L3 larvae; assay: Larval motility assay (LMA), Worminator; assay type: cell-based, Haemonchus contortus
Source text: The H. contortus isolates used were TxPh-2011-S (Texas A&M University, USA) and UGA MDR 2020 (University of Georgia Athens, USA). TxPh-2011-S (Texas A&M University, USA) was originally isolated from Pronghorn antelope in West Texas in 2011 and is fully drug susceptible, phenotypically determined by the DrenchRite larval development assay (LDA; Microbial Screening Technologies, Kemps Creek, Australia). To establish this as a laboratory isolate, it was initially passaged in goats at Texas A&M University and then at The University of Georgia using both goats and sheep, and it is currently maintained in lambs at Louisiana State University. A nemabiome assay ([69]) was conducted at the University of Calgary to confirm that the isolate is 100% H. contortus. The UGA MDR 2020 (University of Georgia Athens, USA) isolate is resistant to ivermectin, benzimidazoles, levamisole, and moxidectin, as determined by the DrenchRite LDA. To establish this as a laboratory isolate, feces collected from a sheep farm in Georgia with known history of multiple anthelmintic resistance were cultured. Two donor goats were infected with the larvae recovered, which were morphologically ([70]) identified as 89% H. contortus. A fecal egg count reduction test (FECRT) was then performed in the infected goats. First, a combination treatment with albendazole at 15 mg/kg and ivermectin at 0.4 mg/kg was performed, followed by a treatment with levamisole at 12 mg/kg. Later, and to confirm resistance to moxidectin, another treatment was administered using a dose of 0.4 mg/kg of moxidectin. Posttreatment feces were recovered, coprocultures were established, and L3 larvae were identified as 100% H. contortus. Resistance to all drugs was subsequently confirmed using a DrenchRite assay.
For LMAs, the first phase testing using compounds NSC133100 and NSC177383 was done using the Worminator system in parallel with the LDA. Initial stock solutions of 12.5 mM were prepared for each compound using 100% DMSO as a solvent. Initial stock solutions (25 μL) were then diluted in 475 μL of culture media to yield working stock solutions of 625.00, 156.30, 39.10, 9.80, 2.40, 0.60, 0.20, 0.04, and 0.00 μM in 5% DMSO for each drug. In plate, 200 μL of working stock solutions were then diluted in 800 μL of culture media, yielding concentrations of 125.00, 31.25, 7.81, 1.95, 0.49, 0.12, and 0.00 μM in 1% DMSO. For the second phase of testing, compounds showing anthelmintic activity with the LDA were tested in a second round at higher concentrations than in the first phase of testing. Initial stocks of 50 mM were prepared for compounds NSC133100, NSC177383, NSC145612, and NSC56410 using 100% DMSO as a solvent. Initial stock solutions (25-μL portions) were then diluted in 475 μL of culture media consisting of 65% Lauria-Bertani (LB) (Thermo Fisher Scientific, Branchburg, NJ), 25% NCTC (Sigma-Aldrich), 10% fetal bovine serum (Atlanta Biologicals, Flowery Branch, GA), Pen/Strep (Sigma-Aldrich) at a final concentration of […], and amphotericin B (Sigma-Aldrich) at a final concentration of […]. The working stock solutions yielded concentrations of 2,500.00, 625.00, 156.30, 39.10, 9.80, 2.40, and 0.00 μM in 5% DMSO for each compound. In each well in the plate, 200 μL of working stock solutions were then diluted in 800 μL of culture media, yielding final concentrations of 500.00, 125.00, 31.30, 7.81, 1.95, 0.49, and 0.00 μM in 1% DMSO.
For the motility assays, 24-well plates with inserts were used (Costar, catalog no. 3379; Corning, Inc., Corning, NY). Portions (640 μL) of culture media were added to each well, and approximately 50 exsheathed larvae contained in 160 μL of culture media in each insert. Once pretreatment readings were taken, 160 μL of the drug solution was added to the well, and another 40 μL was added to the insert, reaching the final concentrations described in the protocol above. All concentrations were tested in triplicate. […]

[2] = test system: MDR isolate of H. contortus, exsheathed L3 larvae; assay: Larval motility assay (LMA), Worminator; assay type: cell-based, Haemonchus contortus; remark: listed apart in the source

For CO[C@H]1/C=C/O[C@@]2(C)Oc3c(C)c(O)c4c(O)c(cc(O)c4c3C2=O)NC(=O)/C(C)=C\C=C\[C@H](C)[C@H](O)[C@@H](C)[C@@H](O)[C@@H](C)[C@H](OC(C)=O)[C@@H]1C [NSC133100], the “Percent inhibition of larval motility” value ([1]; 15.625 µM, 1 hour) was 6.1%, the “Percent inhibition of larval motility” value ([1]; 15.625 µM, 4 hours) was 6.9% and the “Percent inhibition of larval motility” value ([1]; 15.625 µM, 24 hours) was -6.8%. The “Percent inhibition of larval motility” value ([1]; 15.625 µM, 48 hours) was -11.1%, the “Percent inhibition of larval motility” value ([1]; 15.625 µM, 72 hours) was -11.7% and the “Percent inhibition of larval motility” value ([1]; 15.625 µM, 96 hours) was -3.4%. For the same compound, the “Percent inhibition of larval motility” value ([1]; 15.625 µM, Initial) was -7.4%, the “Percent inhibition of larval motility” value ([1]; 31.25 µM, 1 hour) was 6.3% and the “Percent inhibition of larval motility” value ([1]; 31.25 µM, 4 hours) was 1.6%. For the same compound, the “Percent inhibition of larval motility” value ([1]; 31.25 µM, 24 hours) was 0.6%, the “Percent inhibition of larval motility” value ([1]; 31.25 µM, 48 hours) was 11.9% and the “Percent inhibition of larval motility” value ([1]; 31.25 µM, 72 hours) was 3.1%. For the same compound, the “Percent inhibition of larval motility” value ([1]; 31.25 µM, 96 hours) was 5.5%, the “Percent inhibition of larval motility” value ([1]; 31.25 µM, Initial) was -21.7% and the “Percent inhibition of larval motility” value ([1]; 62.5 µM, 4 hours) was -11.1%. The “Percent inhibition of larval motility” value ([1]; 62.5 µM, 24 hours) was -12.6%, the “Percent inhibition of larval motility” value ([1]; 62.5 µM, 48 hours) was -2.3% and the “Percent inhibition of larval motility” value ([1]; 125 µM, 1 hour) was 33.8%. The “Percent inhibition of larval motility” value ([1]; 125 µM, 4 hours) was 3.0%, the “Percent inhibition of larval motility” value ([1]; 125 µM, 24 hours) was -6.2% and the “Percent inhibition of larval motility” value ([1]; 125 µM, 48 hours) was 18.4%. For the same compound, the “Percent inhibition of larval motility” value ([1]; 125 µM, 72 hours) was 14.0%, the “Percent inhibition of larval motility” value ([1]; 125 µM, 96 hours) was 26.6% and the “Percent inhibition of larval motility” value ([1]; 125 µM, Initial) was -12.3%. The “Percent inhibition of larval motility” value ([1]; 250 µM, 1 hour) was 38.9%, the “Percent inhibition of larval motility” value ([1]; 250 µM, 24 hours) was -12.4% and the “Percent inhibition of larval motility” value ([1]; 250 µM, 48 hours) was 28.6%. The “Percent inhibition of larval motility” value ([1]; 250 µM, 96 hours) was 0.9%, the “Percent inhibition of larval motility” value ([1]; 250 µM, Initial) was -11.5% and the “Percent inhibition of larval motility” value ([1]; 500 µM, 1 hour) was 33.9%. For the same compound, the “Percent inhibition of larval motility” value ([1]; 500 µM, 4 hours) was -2.0%, the “Percent inhibition of larval motility” value ([1]; 500 µM, 24 hours) was -0.5% and the “Percent inhibition of larval motility” value ([1]; 500 µM, 48 hours) was 22.2%. For the same compound, the “Percent inhibition of larval motility” value ([1]; 500 µM, 72 hours) was 12.1%, the “Percent inhibition of larval motility” value ([1]; 500 µM, 96 hours) was 18.5% and the “Percent inhibition of larval motility” value ([1]; 500 µM, Initial) was 5.8%. The “Percent inhibition of larval motility” value ([2]; 62.5 µM, 1 hour) was 13.5%, the “Percent inhibition of larval motility” value ([2]; 62.5 µM, 72 hours) was -9.5% and the “Percent inhibition of larval motility” value ([2]; 62.5 µM, 96 hours) was -1.6%. The “Percent inhibition of larval motility” value ([2]; 62.5 µM, Initial) was -25.7%, the “Percent inhibition of larval motility” value ([2]; 250 µM, 4 hours) was -5.6% and the “Percent inhibition of larval motility” value ([2]; 250 µM, 72 hours) was -1.2%.
CO[C@@H]1/C=C\O[C@]2(C)Oc3c(C)c(O)c4c(O)c(c(CN(C)C)c(O)c4c3C2=O)NC(=O)/C(C)=C\C=C[C@@H](C)[C@@H](O)[C@H](C)[C@@H](O)[C@H](C)[C@H](OC(C)=O)[C@@H]1C [NSC145612] was tested, and the “Percent inhibition of larval motility” value ([1]; 15.625 µM, 1 hour) was -10.3%, the “Percent inhibition of larval motility” value ([1]; 15.625 µM, 4 hours) was 7.3% and the “Percent inhibition of larval motility” value ([1]; 15.625 µM, 24 hours) was 7.0%. The “Percent inhibition of larval motility” value ([1]; 15.625 µM, 48 hours) was 8.1%, the “Percent inhibition of larval motility” value ([1]; 15.625 µM, 72 hours) was 23.0% and the “Percent inhibition of larval motility” value ([1]; 15.625 µM, 96 hours) was 17.4%. For the same compound, the “Percent inhibition of larval motility” value ([1]; 15.625 µM, Initial) was 20.3%, the “Percent inhibition of larval motility” value ([1]; 31.25 µM, 1 hour) was 20.1% and the “Percent inhibition of larval motility” value ([1]; 31.25 µM, 4 hours) was -11.2%. For the same compound, the “Percent inhibition of larval motility” value ([1]; 31.25 µM, 24 hours) was 27.2%, the “Percent inhibition of larval motility” value ([1]; 31.25 µM, 48 hours) was 21.9% and the “Percent inhibition of larval motility” value ([1]; 31.25 µM, 72 hours) was 43.2%. The “Percent inhibition of larval motility” value ([1]; 31.25 µM, 96 hours) was 3.9%, the “Percent inhibition of larval motility” value ([1]; 31.25 µM, Initial) was 21.0% and the “Percent inhibition of larval motility” value ([1]; 62.5 µM, 4 hours) was 32.0%. The “Percent inhibition of larval motility” value ([1]; 62.5 µM, 24 hours) was 10.4%, the “Percent inhibition of larval motility” value ([1]; 62.5 µM, 48 hours) was 14.1% and the “Percent inhibition of larval motility” value ([1]; 125 µM, 1 hour) was 31.7%. For the same compound, the “Percent inhibition of larval motility” value ([1]; 125 µM, 4 hours) was 34.3%, the “Percent inhibition of larval motility” value ([1]; 125 µM, 24 hours) was 15.7% and the “Percent inhibition of larval motility” value ([1]; 125 µM, 48 hours) was 8.1%. The “Percent inhibition of larval motility” value ([1]; 125 µM, 72 hours) was 3.0%, the “Percent inhibition of larval motility” value ([1]; 125 µM, 96 hours) was -6.9% and the “Percent inhibition of larval motility” value ([1]; 125 µM, Initial) was 21.6%. For the same compound, the “Percent inhibition of larval motility” value ([1]; 250 µM, 1 hour) was 13.0%, the “Percent inhibition of larval motility” value ([1]; 250 µM, 24 hours) was -8.6% and the “Percent inhibition of larval motility” value ([1]; 250 µM, 48 hours) was 13.8%. The “Percent inhibition of larval motility” value ([1]; 250 µM, 96 hours) was 12.8%, the “Percent inhibition of larval motility” value ([1]; 250 µM, Initial) was 25.9% and the “Percent inhibition of larval motility” value ([1]; 500 µM, 1 hour) was -19.2%. For the same compound, the “Percent inhibition of larval motility” value ([1]; 500 µM, 4 hours) was 0.4%, the “Percent inhibition of larval motility” value ([1]; 500 µM, 24 hours) was -12.0% and the “Percent inhibition of larval motility” value ([1]; 500 µM, 48 hours) was 14.1%. The “Percent inhibition of larval motility” value ([1]; 500 µM, 72 hours) was 9.6%, the “Percent inhibition of larval motility” value ([1]; 500 µM, 96 hours) was -5.1% and the “Percent inhibition of larval motility” value ([1]; 500 µM, Initial) was 9.3%. The “Percent inhibition of larval motility” value ([2]; 62.5 µM, 1 hour) was 16.7%, the “Percent inhibition of larval motility” value ([2]; 62.5 µM, 72 hours) was 18.3% and the “Percent inhibition of larval motility” value ([2]; 62.5 µM, 96 hours) was 3.8%. For the same compound, the “Percent inhibition of larval motility” value ([2]; 62.5 µM, Initial) was 10.1%, the “Percent inhibition of larval motility” value ([2]; 250 µM, 4 hours) was 47.0% and the “Percent inhibition of larval motility” value ([2]; 250 µM, 72 hours) was 9.2%.
